Biological target: Protein cereblon/Eukaryotic peptide chain release factor GTP-binding subunit ERF3A (Homo sapiens, UniProt P15170+Q96SW2)
Assay: PROTAC activity at CRBN/GSPT1 in human U-937 cells assessed as degradation of GSPT1 measured after 6 hrs by Western blot analysis
Type: cell-based

Sequence of Protein cereblon/Eukaryotic peptide chain release factor GTP-binding subunit ERF3A (Q96SW2 whole entry): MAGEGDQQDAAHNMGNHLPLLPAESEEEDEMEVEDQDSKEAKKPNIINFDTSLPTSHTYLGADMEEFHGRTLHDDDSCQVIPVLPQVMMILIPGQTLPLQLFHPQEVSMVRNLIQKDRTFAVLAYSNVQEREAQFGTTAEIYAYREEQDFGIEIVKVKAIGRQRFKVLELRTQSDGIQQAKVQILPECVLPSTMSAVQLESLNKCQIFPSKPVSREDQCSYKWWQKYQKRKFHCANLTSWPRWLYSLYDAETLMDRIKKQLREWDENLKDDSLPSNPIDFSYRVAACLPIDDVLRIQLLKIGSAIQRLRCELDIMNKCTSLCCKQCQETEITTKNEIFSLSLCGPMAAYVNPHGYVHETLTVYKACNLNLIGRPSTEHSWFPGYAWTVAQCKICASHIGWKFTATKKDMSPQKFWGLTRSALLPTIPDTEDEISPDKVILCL
Sequence of Protein cereblon/Eukaryotic peptide chain release factor GTP-binding subunit ERF3A (P15170 whole entry): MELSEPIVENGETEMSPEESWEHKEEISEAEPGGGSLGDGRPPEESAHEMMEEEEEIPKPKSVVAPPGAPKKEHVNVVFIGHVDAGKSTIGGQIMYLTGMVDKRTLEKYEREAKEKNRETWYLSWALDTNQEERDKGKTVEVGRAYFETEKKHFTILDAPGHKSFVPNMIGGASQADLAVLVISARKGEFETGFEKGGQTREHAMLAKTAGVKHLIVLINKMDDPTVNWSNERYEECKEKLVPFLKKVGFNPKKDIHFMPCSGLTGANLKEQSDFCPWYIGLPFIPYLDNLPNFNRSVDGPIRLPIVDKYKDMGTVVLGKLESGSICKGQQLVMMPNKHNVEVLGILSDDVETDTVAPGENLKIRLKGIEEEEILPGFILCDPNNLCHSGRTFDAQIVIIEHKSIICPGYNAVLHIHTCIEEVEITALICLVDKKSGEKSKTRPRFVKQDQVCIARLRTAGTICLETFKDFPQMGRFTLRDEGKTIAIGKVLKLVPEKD

Row | SMILES | EC50
1 | Cc1ccc(NC(=O)/C=C/c2cccc3c2CN(C2CCC(=O)NC2=O)C3=O)cc1Cl (centres undefined) | 3060 nM
2 | Cc1c(Cl)cc(NC(=O)CCc2ccc3c(c2)C(=O)N(C2CCC(=O)NC2=O)C3)cc1CN1CCN(C)CC1 (centres undefined) | 2200 nM
3 | Cc1c(Cl)cc(NC(=O)CCc2ccc3c(c2)C(=O)N(C2CCC(=O)NC2=O)C3)cc1CN1CC2(COC2)C1 (centres undefined) | 86 nM
4 | Cc1c(Cl)cc(NC(=O)CCc2ccc3c(c2)C(=O)N(C2CCC(=O)NC2=O)C3)cc1CN1CCC(N2CCOCC2)CC1 (centres undefined) | 176 nM

Reference: ChEMBL document CHEMBL5620419, “Discovery of new Lenalidomide derivatives as potent and selective GSPT1 degraders” (Eur J Med Chem, 2023)
